{"source": "ChEMBL document CHEMBL1201862", "about": "“PubChem BioAssay data set” (2004)", "key": {"[1]": {"target": "Beta-galactosidase (Escherichia coli, UniProt Q8VNN2)", "sequence (Q8VNN2 whole entry)": "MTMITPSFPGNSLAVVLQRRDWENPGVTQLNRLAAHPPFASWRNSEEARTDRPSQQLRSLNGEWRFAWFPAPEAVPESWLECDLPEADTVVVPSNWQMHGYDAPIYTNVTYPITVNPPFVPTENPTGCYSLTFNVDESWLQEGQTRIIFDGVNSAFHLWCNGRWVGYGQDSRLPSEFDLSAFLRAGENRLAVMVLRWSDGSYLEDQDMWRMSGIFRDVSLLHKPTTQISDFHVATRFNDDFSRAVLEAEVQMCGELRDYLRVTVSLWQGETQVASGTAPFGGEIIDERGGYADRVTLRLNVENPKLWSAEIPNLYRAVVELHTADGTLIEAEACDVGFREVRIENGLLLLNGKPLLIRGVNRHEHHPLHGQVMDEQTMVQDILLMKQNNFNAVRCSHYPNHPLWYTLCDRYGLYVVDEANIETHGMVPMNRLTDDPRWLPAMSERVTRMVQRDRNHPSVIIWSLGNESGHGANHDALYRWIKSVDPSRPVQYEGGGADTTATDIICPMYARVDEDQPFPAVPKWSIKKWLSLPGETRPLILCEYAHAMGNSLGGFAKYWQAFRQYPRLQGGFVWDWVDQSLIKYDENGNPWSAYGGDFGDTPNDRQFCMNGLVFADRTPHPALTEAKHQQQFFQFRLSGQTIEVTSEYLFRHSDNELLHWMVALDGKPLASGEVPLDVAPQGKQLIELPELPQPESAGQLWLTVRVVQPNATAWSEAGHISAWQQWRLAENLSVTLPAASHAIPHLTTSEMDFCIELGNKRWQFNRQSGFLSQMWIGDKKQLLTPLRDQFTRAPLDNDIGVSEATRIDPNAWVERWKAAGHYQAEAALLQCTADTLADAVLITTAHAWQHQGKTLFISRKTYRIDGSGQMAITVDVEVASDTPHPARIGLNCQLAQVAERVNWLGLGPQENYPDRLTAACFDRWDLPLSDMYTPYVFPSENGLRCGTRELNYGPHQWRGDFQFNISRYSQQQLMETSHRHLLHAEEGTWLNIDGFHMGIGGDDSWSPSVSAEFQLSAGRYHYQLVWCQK", "assay": "Dose response counterscreen for EBI2 assay utilizing the enzyme, b-galactosidase.", "format": "functional"}, "[2]": {"system": "BJ", "assay": "BJ-TERT fibroblast viability loss – cell-based, RAS-independent, luminescence, dose response (AID 1933)", "format": "functional", "conditions": "Homo sapiens"}, "[3]": {"system": "BJ", "assay": "cells", "format": "functional, cell-based", "conditions": "Homo sapiens"}, "[4]": {"system": "BJ", "assay": "BJ-TERT-LT-ST fibroblast viability loss – cell-based, RAS-independent, luminescence, dose response (AID 1935);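 note: BJ fibroblasts immortalized with TERT plus LT and ST oncogenes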", "format": "functional", "conditions": "Homo sapiens"}, "[5]": {"assay": "DRD fibroblast viability loss – cell-based, non-viral oncogenic, luminescence, dose response (AID 1934)", "format": "functional", "conditions": "Homo sapiens"}, "[6]": {"system": "BJ", "assay": "growth inhibition of engineered Ras-driven BJ cells – cell-based, alamar blue fluorescence, cherrypicked samples, dose response (AID 2631)", "format": "functional", "conditions": "Homo sapiens"}, "[7]": {"assay": "blockers of HIV-1 envelope-mediated cell-cell fusion – cherry-pick, dose response (AID 652057)", "format": "functional, cell-based"}, "[8]": {"assay": "viability loss in CEM21 cells – cell-based, CellTiter-Glo luminescence, cherry-picked, cytotoxicity control for viral fusion inhibitor project, dose response (AID 652042);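 note: potency for signal decrease meaning cytotoxicity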", "format": "functional"}, "[9]": {"assay": "off-target signal loss in HeLa-CEM21 co-culture – HeLa F-luc CTL cells, cherry-picked, counter-screen for HIV-1 Env fusion inhibitor project, dose response (AID 652040);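 note: potency for signal decrease marking cytotoxic or nonspecific inhibition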", "format": "functional, cell-based"}, "[10]": {"assay": "HIV-1 AD8 envelope cell-cell fusion blockers – cherry-pick, dose response (AID 652062);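 note: potency is for inhibitors of fusion seen as a drop in luminescence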", "format": "functional, cell-based"}, "[11]": {"assay": "viability of uninfected HEp-2 cells – cell-based, HTS, cytotoxicity control for RSV inhibitor project, dose response (AID 2410)", "format": "functional", "conditions": "human respiratory syncytial virus"}, "[12]": {"target": "T1, Replicative DNA helicase DnaB (Mycobacterium tuberculosis, UniProt P9WMR3)", "T1 sequence (P9WMR3 whole entry)": "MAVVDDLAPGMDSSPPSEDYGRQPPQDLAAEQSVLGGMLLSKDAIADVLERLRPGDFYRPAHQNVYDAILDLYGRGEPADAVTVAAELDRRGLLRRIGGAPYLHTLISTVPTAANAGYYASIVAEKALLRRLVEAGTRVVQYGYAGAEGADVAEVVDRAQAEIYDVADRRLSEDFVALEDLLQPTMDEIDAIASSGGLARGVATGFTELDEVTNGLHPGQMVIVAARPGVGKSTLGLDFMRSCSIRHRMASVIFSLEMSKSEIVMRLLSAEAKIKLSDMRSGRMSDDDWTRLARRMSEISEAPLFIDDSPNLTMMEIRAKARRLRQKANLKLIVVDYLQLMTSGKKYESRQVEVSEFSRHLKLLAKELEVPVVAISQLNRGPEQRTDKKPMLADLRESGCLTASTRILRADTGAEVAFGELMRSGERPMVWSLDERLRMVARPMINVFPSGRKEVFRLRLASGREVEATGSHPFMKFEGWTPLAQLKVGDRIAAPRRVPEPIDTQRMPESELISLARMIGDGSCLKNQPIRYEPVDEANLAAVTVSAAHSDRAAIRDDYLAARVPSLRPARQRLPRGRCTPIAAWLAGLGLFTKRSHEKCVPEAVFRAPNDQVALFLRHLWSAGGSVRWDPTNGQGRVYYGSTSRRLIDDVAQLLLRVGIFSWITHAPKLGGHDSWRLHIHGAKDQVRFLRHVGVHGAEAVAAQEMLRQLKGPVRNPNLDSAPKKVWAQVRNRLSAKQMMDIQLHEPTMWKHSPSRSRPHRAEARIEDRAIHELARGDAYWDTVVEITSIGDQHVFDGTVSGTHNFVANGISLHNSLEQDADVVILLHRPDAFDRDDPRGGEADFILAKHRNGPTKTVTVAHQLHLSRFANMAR", "assay": "DnaB intein splicing inhibitors, dose response, biochemical, cell-free fluorescence (AID 449749)", "format": "functional"}, "[13]": {"target": "T2, Protein RecA (Mycobacterium tuberculosis, UniProt P9WHJ3)", "T2 sequence (P9WHJ3 whole entry)": "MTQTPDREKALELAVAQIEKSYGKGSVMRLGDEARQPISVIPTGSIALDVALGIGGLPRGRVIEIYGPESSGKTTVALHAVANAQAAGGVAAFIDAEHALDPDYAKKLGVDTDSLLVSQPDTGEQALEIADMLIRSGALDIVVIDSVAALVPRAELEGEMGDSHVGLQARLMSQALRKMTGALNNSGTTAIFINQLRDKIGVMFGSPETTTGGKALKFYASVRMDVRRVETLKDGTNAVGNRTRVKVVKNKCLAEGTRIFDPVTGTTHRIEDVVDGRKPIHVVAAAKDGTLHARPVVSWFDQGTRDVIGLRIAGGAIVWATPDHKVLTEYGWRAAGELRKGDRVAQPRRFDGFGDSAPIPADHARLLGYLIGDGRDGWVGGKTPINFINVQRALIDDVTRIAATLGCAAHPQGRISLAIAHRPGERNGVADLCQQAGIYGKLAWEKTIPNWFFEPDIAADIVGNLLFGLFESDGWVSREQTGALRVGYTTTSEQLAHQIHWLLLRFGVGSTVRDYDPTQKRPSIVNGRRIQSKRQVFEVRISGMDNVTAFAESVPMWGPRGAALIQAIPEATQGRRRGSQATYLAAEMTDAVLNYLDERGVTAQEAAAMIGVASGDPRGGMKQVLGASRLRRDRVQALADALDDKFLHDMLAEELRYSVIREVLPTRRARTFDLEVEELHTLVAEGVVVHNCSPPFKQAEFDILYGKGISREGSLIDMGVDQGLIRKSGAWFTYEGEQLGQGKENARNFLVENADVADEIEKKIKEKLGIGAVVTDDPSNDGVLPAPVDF", "assay": "Fluorescence Cell-Free Homogeneous Dose Retest to Identify Inhibitors of RecA-Intein Splicing Activity. [Related pubchem assays (depositor defined):AID2097, AID2223, AID489010, AID492950]", "format": "functional"}, "[14]": {"assay": "blockers of HIV-1 ZM109 envelope-driven cell-cell fusion – HeLa effector, CEM target cells, luciferase, cherry-pick, dose response (AID 652058)", "format": "functional, cell-based"}, "[15]": {"target": "T3, Caspase-6 (Homo sapiens, UniProt P55212)", "T3 sequence (P55212 whole entry)": "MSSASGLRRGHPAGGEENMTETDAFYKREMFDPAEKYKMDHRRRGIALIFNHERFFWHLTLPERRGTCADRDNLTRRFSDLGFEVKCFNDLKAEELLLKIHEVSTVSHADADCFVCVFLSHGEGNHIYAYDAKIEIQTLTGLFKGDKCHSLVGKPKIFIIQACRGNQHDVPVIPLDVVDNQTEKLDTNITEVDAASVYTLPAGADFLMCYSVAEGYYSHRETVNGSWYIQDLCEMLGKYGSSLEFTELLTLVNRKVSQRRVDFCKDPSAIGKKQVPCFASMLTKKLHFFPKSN", "assay": "inhibition of CASP6 peptide cleavage – biochemical, VEID-R110 fluorescence, cherry-pick, dose response (AID 720632)"}}, "note": "Calls of active or inactive are those of the source."}
{"smiles": "O=C(/C=C/c1ccc(Cl)cc1)N1CCN(c2ccccc2[N+](=O)[O-])CC1", "values": [{"measurement": "IC50", "setting": "[1]", "result": "> 80 µM (inactive)"}]}
{"smiles": "COc1ccc2nc(O)c(CN(Cc3cccs3)S(=O)(=O)c3cccc4nsnc34)cc2c1", "values": [{"measurement": "EC50", "setting": "[2]", "result": "21.1 µM (active)"}, {"measurement": "EC50", "setting": "[3]", "result": "25.6 µM (inconclusive)"}, {"measurement": "EC50", "setting": "[4]", "result": "> 150 µM (not active)"}, {"measurement": "EC50", "setting": "[5]", "result": "14.5 µM (active)"}, {"measurement": "EC50", "setting": "[6]", "result": "1.62 µM (active)"}, {"measurement": "AC50", "setting": "[7]", "result": "4.12 µM (active)"}, {"measurement": "AC50", "setting": "[8]", "result": "38.4 µM (active)"}, {"measurement": "AC50", "setting": "[9]", "result": "16.9 µM (active)"}, {"measurement": "AC50", "setting": "[10]", "result": "3.31 µM (active)"}]}
{"smiles": "Oc1nnc(Sc2ncnc3sccc23)n1CCc1ccccc1", "values": [{"measurement": "CC50", "setting": "[11]", "result": "14.9 µM (active)"}, {"measurement": "AC50", "setting": "[12]", "result": "> 380 µM (inactive)"}, {"measurement": "EC50", "setting": "[13]", "result": "18 µM (active)"}, {"measurement": "AC50", "setting": "[7]", "result": "7.58 µM (active)"}, {"measurement": "AC50", "setting": "[8]", "result": "27 µM (active)"}, {"measurement": "AC50", "setting": "[14]", "result": "16.6 µM (active)"}, {"measurement": "AC50", "setting": "[9]", "result": "17.3 µM (active)"}, {"measurement": "AC50", "setting": "[10]", "result": "18.1 µM (active)"}]}
{"smiles": "CC1CCCCC1NC(=O)COC(=O)c1ccc([N+](=O)[O-])o1", "note": "(centres undefined)", "values": [{"measurement": "AC50", "setting": "[15]", "result": "43.8 µM (active)"}]}
